“Also recorded” adds a separate entry of the source. In the oligonucleotide strings, read from the 5' end, every base follows the letter of its sugar. An asterisk marks phosphorothioate; unmarked linkages are phosphodiester. Other units and linkages are bracketed, terminal groups are in braces. A string of capitals states the bases alone. e = 2'-O-(2-methoxyethyl) (MOE); [5mC] = 5-methylcytosine; d = 2'-deoxy (DNA)
What was measured:
[1] = system: preadipocytes / differentiating adipocytes; assay: Adipocyte differentiation assay, markers taken together; type: cell-based, human; details: for expression levels of markers of adipocyte differentiation (TG, leptin, aP2, HSL, Glut4, PPARγ): preadipocytes, 250 nM, day nine post-transfection, relative to ISIS-29848; for 5 markers of adipocyte differentiation: % of UTC (Table 75)
Description: Oligomeric compounds of the invention are tested for their effects on preadipocyte differentiation. […] For the other adipocyte differentiation markers assayed, an oligomeric compound targeted to PPAR-γ, also known to inhibit adipocyte differentiation, may be used as a positive control.
Cells are transfected as described herein. […] Untreated control cells receive LIPOFECTIN™ only.
After the cells have reach confluence (approximately three days), they are exposed for an additional three days to differentiation medium (Zen-Bio, Inc., Research Triangle Park, N.C.) containing a PPAR-γ agonist, IBMX, dexamethasone, and insulin. Cells are then fed adipocyte medium (Zen-Bio, Inc.), which is replaced at 2 or 3 day intervals.
For assaying adipocyte differentiation, expression of the four hallmark genes, HSL, aP2, Glut4, and PPARγ, as well as triglyceride (TG) accumulation and leptin secretion were measured in adipocytes transfected with the uniform 2′-MOE phosphorothioate (PS) oligomeric compounds previously described. Cells are lysed on day nine post-transfection, in a guanadinium-containing buffer and total RNA is harvested. Real-time PCR is performed (Applied Biosystems, Prism 7700) on the total RNA using the following primer/probe sets for the adipocyte differentiation hallmark genes: (aP2): forward 5′-GGTGGTGGAATGCGTCATG-3′ (SEQ ID NO: 746), reverse 5′-[…]-3′ (SEQ ID NO: 747), probe 5′-FAM-[…]-TAMRA-3′ (SEQ ID NO: 748); (Glut4): forward 5′-GGCCTCCGCAGGTTCTG-3′ (SEQ ID NO: 749), reverse 5′-[…]-3′ (SEQ ID NO: 750), probe 5′-FAM-[…]-TAMRA-3′ (SEQ ID NO: 751); (HSL): forward 5′-ACCTGCGCACAATGACACA-3′ (SEQ ID NO: 752), reverse 5′-[…]-3′ (SEQ ID NO: 753), probe 5′-FAM-[…]-TAMRA-3′ (SEQ ID NO: 754); (PPAR-γ): forward 5′-[…]-3′ (SEQ ID NO: 755), reverse 5′-[…]-3′ (SEQ ID NO: 756), probe 5′-FAM-[…]-TAMRA-3′ (SEQ ID NO: 757). The amount of total RNA in each sample is determined using a Ribogreen Assay (Molecular Probes, Eugene, Oreg.), and expression levels of the adipocyte differentiation hallmark genes were normalized to total RNA. Leptin protein and triglyceride levels as well as mRNA levels for each of the four adipocyte differentiation hallmark genes are expressed relative to control levels (control=treatment with ISIS-29848 (SEQ ID NO: 737)).
In some embodiments, differentiating adipocytes were treated with uniform 2′-MOE phosphorothioate oligomeric compounds according to the methods described above, and the expression of the four hallmark genes, HSL, aP2, Glut4, and PPARγ, as well as triglyceride (TG) accumulation were measured. […] Undifferentiated adipocytes were also compared as a negative control. […] The effects of TNF-α, also known to inhibit adipocyte differentiation, were also measured.

PPARγ = PPARγ mRNA expression in adipocytes (real-time PCR); type: cell-based, human; details: preadipocytes, 250 nM, day nine
[2] = system: BJ, B16-F10, T47D, T47Dp53 and HeLa cells; assay: Cell cycle assay (propidium iodide flow cytometry), cell line panel; type: cell-based; details: 150 nM, 72 hours (Table 29)
HeLa cells = assay: Cell cycle assay in HeLa cells; type: cell-based, human; details: HeLa, 150 nM
PEPCK-c = PEPCK-c mRNA expression in HepG2 cells; type: cell-based, human; details: HepG2, 1 nM insulin, 100 nM
T47D cells = assay: Caspase-3 activity assay (apoptosis) in T47D cells; details: caspase assay, 200 nM; conclusion from Tables 9-12
[3] = differentiating adipocytes, % of UTC (Table 55)

## AACCATACAACCTACTACCTCA (chemistry not given here) [ISIS 327931, uniform 2′-MOE PS; targets let-7c]
[1]
  expression levels of markers of adipocyte differentiation (TG, leptin, aP2, HSL, Glut4, PPARγ): increase in four out of six markers of adipocyte differentiation; also recorded: increase in expression levels for several markers of adipocyte differentiation
PPARγ
  expression of PPAR-γ: significant increase in the expression of PPAR-γ

## AAGGGATTCCTGGGAAAACTGGAC (chemistry not given here) [ISIS 327933, uniform 2′-MOE PS; targets mir-145]
[1]
  expression levels of markers of adipocyte differentiation (TG, leptin, aP2, HSL, Glut4, PPARγ): increase in all six markers of adipocyte differentiation
[2]
  percentage of cells in the G2/M phase: increased percentage of cells in the G2/M phase
HeLa cells; 24 hours
  phase of the cell cycle in which cells arrest or delay: G2/M-phase
HeLa cells; 48 hours
  phase of the cell cycle in which cells arrest or delay: subG1-phase

## AATCTCATTTTCATACTTGCA (anti-miR; chemistry not fully specified) [ISIS 328114, uniform 2′-MOE PS; targets hypothetical miRNA-138]
[1]; [3]
  five markers of adipocyte differentiation: increase in all five markers of adipocyte differentiation
PEPCK-c
  reduction of PEPCK-c mRNA expression: 59%

## ATGACTACAAGTTTATGGCCA (chemistry not given here) [ISIS 328121, uniform 2′-MOE PS; targets hypothetical miRNA-161]
[1]; differentiating adipocytes
  5 markers of adipocyte differentiation: significant increases in all 5 markers of adipocyte differentiation
[1]; differentiating adipocytes, control ISIS 342673 (Tables 17, 18)
  five markers of adipocyte differentiation: increase in all five markers of adipocyte differentiation

## CAGACTCCCAACTGACCAGA (chemistry not fully specified) [ISIS 328382, 5-10-5 2′-MOE gapmer PS; targets the mir-143 pri-miRNA]
[1]; preadipocytes (Table 20)
  expression of the adipocyte differentiation markers, compounds targeting mir-143 miRNA or pri-miRNA compared: more effective in blocking adipocyte differentiation

## CCAAGTGTTAGAGCAAGATCA (anti-miR; chemistry not fully specified) [ISIS 328126, uniform 2′-MOE PS; targets hypothetical miRNA-170]
[1]; differentiating adipocytes
  5 markers of adipocyte differentiation: increases in 4 of the 5 markers of adipocyte differentiation

## CCATCTTTACCAGACAGTGTT (anti-miR; chemistry not fully specified) [ISIS 327942, uniform 2′-MOE PS; targets mir-141]
[1]
  expression levels of markers of adipocyte differentiation (TG, leptin, aP2, HSL, Glut4, PPARγ): significantly reduce the expression levels of 5 of 6 markers of adipocyte differentiation

## CCCAACAACATGAAACTACCTA (chemistry not given here) [ISIS 327909, uniform 2′-MOE PS; targets mir-196-2]
[1]; [3]
  five markers of adipocyte differentiation: increase in three of the five markers of adipocyte differentiation

## CCCCATCTTAGCATCTAAGG (chemistry not fully specified) [ISIS 328691, 5-10-5 2′-MOE gapmer PS; targets mir-145 pri-miRNA]
[1]; [3]
  five markers of adipocyte differentiation: increase in all five markers of adipocyte differentiation

## CTACCTGCACGAACAGCACTTT (chemistry not given here) [ISIS 340348, uniform 2′-MOE PS; targets mir-93]
[1]; differentiating adipocytes
  5 markers of adipocyte differentiation: significantly reduce the expression levels of 3 of the 5 markers of adipocyte differentiation
[2]
  percentage of cells with hypodiploid DNA content (subG1): increased percentage of cells with hypodiploid DNA content

## GTCTGTCAATTCATAGGTCAT (chemistry not given here) [ISIS 327960, uniform 2′-MOE PS; targets mir-215]
[1]; [3]
  five markers of adipocyte differentiation: reduce the expression levels of all five markers of adipocyte differentiation

## ISIS 328400: 5-10-5 2′-MOE gapmer PS; targets mir-196-2 pri-miRNA (eA*eG*eT*eT*e[5mC]*dA*dA*dA*dA*d[5mC]*dT*d[5mC]*dA*dA*dT*e[5mC]*e[5mC]*e[5mC]*eA*eA)
[1]; [3]
  five markers of adipocyte differentiation: reduce the expression levels of all five markers of adipocyte differentiation
T47D cells
  apoptosis in T47D cells: induce apoptosis

## ISIS 340352: SEQ ID NO: 1821, targeted to mir-99 (Mourelatos) (CACAAGAUCGGAUCUACGGGUU; all 2'-MOE, all phosphorothioate, methylation of C and T or U not given here)
[1]; differentiating adipocytes
  5 markers of adipocyte differentiation: increases in 4 of the 5 markers of adipocyte differentiation

## ISIS 341798: SEQ ID NO: 1871, targeted to mir-123/mir-126 (antisense GCAUUAUUACUCACGGUACGA; all 2'-MOE, all phosphorothioate, methylation of C and T or U not given here)
[1]; differentiating adipocytes
  5 markers of adipocyte differentiation: significantly reduce the expression levels of 3 of the 5 markers of adipocyte differentiation

## ISIS 344340: SEQ ID NO: 1921, targeted to mir-140 (antisense UGUCCGUGGUUCUACCCUGUGGUA; all 2'-MOE, all phosphorothioate, methylation of C and T or U not given here)
[1]; differentiating adipocytes
  5 markers of adipocyte differentiation: significantly reduce the expression levels of 3 of the 5 markers of adipocyte differentiation

## ISIS 344615: SEQ ID NO: 1900, targeted to mir-244* (Kosik) (antisense UCAACAAAAUCACUGAUGCUGGA; all 2'-MOE, all phosphorothioate, methylation of C and T or U not given here)
[1]; differentiating adipocytes
  5 markers of adipocyte differentiation: significant increases in all 5 markers of adipocyte differentiation

## ISIS 346685: SEQ ID NO: 1884, targeted to mir-27 (Mourelatos) (antisense GGCGGAACUUAGCCACUGUGAA; all 2'-MOE, all phosphorothioate, methylation of C and T or U not given here)
[1]; differentiating adipocytes
  5 markers of adipocyte differentiation: significant increases in all 5 markers of adipocyte differentiation

## ISIS 346687: SEQ ID NO: 1802, targeted to mir-129-1 (antisense AGCAAGCCCAGACCGCAAAAAG; all 2'-MOE, all phosphorothioate, methylation of C not given here)
[1]; differentiating adipocytes
  5 markers of adipocyte differentiation: significantly reduce the expression levels of 3 of the 5 markers of adipocyte differentiation

## ISIS 348117: SEQ ID NO: 1860, targeted to mir-321-1 (antisense GAACCCACAAUCCCUGGCUUA; all 2'-MOE, all phosphorothioate, methylation of C and T or U not given here)
[1]; differentiating adipocytes
  5 markers of adipocyte differentiation: significantly reduce the expression levels of 3 of the 5 markers of adipocyte differentiation

## ISIS 348127: SEQ ID NO: 1869, targeted to mir-27b (antisense GCAGAACUUAGCCACUGUGAA; all 2'-MOE, all phosphorothioate, methylation of C and T or U not given here)
[1]; differentiating adipocytes
  5 markers of adipocyte differentiation: significant increases in all 5 markers of adipocyte differentiation

## TCCACAAAGCTGAACATGTCT (anti-miR; chemistry not fully specified) [ISIS 328117, uniform 2′-MOE PS; targets hypothetical miRNA-144]
[1]; differentiating adipocytes, control ISIS 342673
  expression of the other four hallmark genes (HSL, aP2, Glut4, PPARγ): reduction of expression of the other four hallmark genes

## TCCTGGATGATATCTACCTC (chemistry not fully specified) [ISIS 328677, 5-10-5 2′-MOE gapmer PS; targets hypothetical miRNA-120 pri-miRNA]
[1]; [3]
  five markers of adipocyte differentiation: reduce the expression levels of all five markers of adipocyte differentiation
